Test results taken from PMC8653662, “Cytotoxicity and Immunogenicity Evaluation of Synthetic Cell-penetrating Peptides for Methotrexate Delivery” (Iranian Journal of Pharmaceutical Research : IJPR, 2021).
Ends that are not written are not given here. MTX = methotrexate

Assays:
[1] = Zetasizer hydrodynamic size distribution and zeta potential; format: physicochemical; conditions: Zetasizer Nano ZS, distilled water pH 7.4, 25 °C, repeated three times
Description: The size and morphology of NGRWR peptide and NGRWR-E8 nanoparticles (as representatives) were examined by scanning electron microscopy (SEM, Mira3 FEG-SEM Tescan 5.0 kV). Samples were prepared by drop-casting of a 5 mM aqueous solution (20 µL) onto the mica surface. Then, they were lyophilized, coated with gold, and analyzed with a […] of SEM. Zetasizer Nano ZS (Malvern Instruments, Worcestershire, UK) was employed to examine the mean hydrodynamic diameter, size distribution, and zeta potential of NGRWR peptide and NGRWR-E8 nanoparticles. To this end, the samples were diluted in distilled water (pH 7.4), and the experiment was repeated three times per sample at 25 °C.

Raji cells = experiment: MTT cell viability assay; format: cell-based, Human; conditions: for cytotoxicity of CPPs: 5, 10, 25 and 50 μM, 24, 48 and 72 h, 570 nm, mean of three independent experiments in duplicate
Description: Human lymphoma cell line (Raji) was cultured in 75 cm^2 cell culture flasks containing RPMI 1640 medium (Gibco), which was supplemented with 10% FBS, 2 mM L-glutamine, 100 units/mL penicillin, and 100 µg/mL streptomycin ([29]). The cell culture was carried out in a humidified atmosphere of 5% CO2, 95% air, and 37 °C. The cell viability of CPPs and peptide-MTX conjugates was determined by MTT assay in Raji cells. […] […] The cell viability was determined by measuring the amount of MTT transformed to formazan salt using an ELISA reader at 570 nm (Bioteck Instruments, Winooski, VT, USA). The results were the means of three independent experiments performed in duplicate.

IL-6 = format: cell-based, Human; conditions: Raji cells; LPS 10 μg/mL; 48 h; positive control
Description: (§1) As a positive control, cells were incubated with 10 μg/mL of lipopolysaccharide (LPS) to induce IL-6 and TNF-α release. Then, the supernatant was collected and IL-6 and TNF-α secretion was evaluated using standard ELISA kits.

TNF-α = format: cell-based, Human; conditions: Raji cells; LPS 10 μg/mL; 48 h; positive control
Description: as §1

Substance: NGRWRWRWR [linear cell-penetrating peptide …]
- size distribution, population of 16% of particles [1]: 50 nm
- size distribution, population of 20% of particles [1]: 37 nm
- size distribution, population of 21% of particles [1]: 50-250 nm
- size distribution, population of 43% of particles [1]: 26 nm
- zeta potential [1]: +11 mV
- cytotoxicity of CPPs (Raji cells): no significant cytotoxicity

Substance: RRRRRR [R6, linear polyarginine peptide RRRRRR]
- cytotoxicity of CPPs (Raji cells): no significant cytotoxicity

Substance: WKWKWKWK [[WK]4, linear cell-penetrating peptide WKWKWKWK]
- cytotoxicity of CPPs (Raji cells): no significant cytotoxicity

Substance: WRNGRWR-MTX (WRNGRWR-{MTX})
- cytotoxic effect of peptide-MTX conjugates (Raji cells; 25 nM MTX, 48 h after treatment): no significant cytotoxic effect

Substance: WRWNGRWRW [WRNGRWR, linear cell-penetrating peptide …]
- cytotoxicity of CPPs (Raji cells): no significant cytotoxicity

Substance: WRWRWRNGR [linear cell-penetrating peptide …]
- cytotoxicity of CPPs (Raji cells): no significant cytotoxicity

Substance: WRWRWRWR [[WR]4, linear cell-penetrating peptide WRWRWRWR]
- cell viability (Raji cells; 5 μM peptide, 24 h): 40%

Substance: WWWWKKKK [W4K4, linear cell-penetrating peptide WWWWKKKK]
- cytotoxicity of CPPs (Raji cells): no significant cytotoxicity

Substance: WWWWRRRR [W4R4, linear cell-penetrating peptide WWWWRRRR]
- cytotoxicity of CPPs (Raji cells): no significant cytotoxicity

Substance: lipopolysaccharide [LPS]
- IL-6 level enhancement over the control group (IL-6): 100 times
- TNF-α level enhancement over the control group (TNF-α): 100 times
